The target of one data set is T1, chimeric α2α1 GlyR (Rattus norvegicus, UniProt P07727+P22771, A288G/A330S/F348L/L351F/V274I).
T1 construct: Relevance of the ECD for the subunit-specific actions of gelsemine on α1GlyRs; fusion partner: GlyR α1 transmembrane and C-terminal part (Glra1, printed Q546L7); expressed in transfected cells; host or cells: HEK293 (ATCC CRL-1573)
T1 sequence (P22771+P07727 with tags, fused parts or gaps P22771:V274I/P22771:A288G/P22771:A330S/P22771:F348L/P22771:L351F): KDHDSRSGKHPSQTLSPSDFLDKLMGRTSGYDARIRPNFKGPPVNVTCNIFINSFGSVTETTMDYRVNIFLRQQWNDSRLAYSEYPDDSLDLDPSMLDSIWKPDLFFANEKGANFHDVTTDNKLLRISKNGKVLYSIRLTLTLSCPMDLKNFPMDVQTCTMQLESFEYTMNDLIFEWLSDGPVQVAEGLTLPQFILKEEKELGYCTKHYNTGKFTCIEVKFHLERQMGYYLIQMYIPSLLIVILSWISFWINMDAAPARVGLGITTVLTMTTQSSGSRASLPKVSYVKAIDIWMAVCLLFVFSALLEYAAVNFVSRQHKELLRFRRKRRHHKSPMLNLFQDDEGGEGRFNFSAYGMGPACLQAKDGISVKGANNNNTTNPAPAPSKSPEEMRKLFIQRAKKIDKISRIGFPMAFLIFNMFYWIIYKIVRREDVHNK
It is filed as cell-based. The protocol:
(§1) The cells were transfected with plasmids encoding the following proteins: (i). rat GlyR α (1, 2, 3) subunits alone or combined with rat β subunits (Uniprot Accession Numbers: Q546L7, P22771, P20236, P20781); and (ii). rat GABAAR α1 combined with rat β2 and γ2 subunits (Uniprot Accession Numbers: P62813, P63138, P18508). The EGFP expression was used as a marker of successful protein expression. The transfection was performed using Lipofectamine 2000 (Invitrogen, ThermoFisher, Carlsbad, CA, USA) using the fabricant protocol. The plasmids used to express GlyRs and GABAARs have been previously described. To track the successful expression of GlyR β subunits and the GABAA γ2 or β2 subunit, these proteins were subcloned in the pIRES2-EGFP vector. The transfection ratio to obtain β-containing GlyRs was 1:5 of α:β, while the expression of γ2-containing GABAA receptors was 1:2:5 of α:β:γ2 [14, 15]. Chimeric GlyRs were described in a previous report. Site directed mutagenesis was performed by Charm Gene Science Mutagenex LLC. (Cumming, GA, USA). All the constructs were checked by full-length sequencing (SNPSaurus, Eugene, OR, USA).
(§2) In brief, patch electrodes (3–4 MΩ) were pulled from borosilicate glasses in a PC-100 puller (Narishige, Tokyo, Japan); then, they were filled with an intracellular solution, which contained (in mM) 120 CsCl, 8 EGTA, 10 HEPES (pH 7.4), 4 MgCl2, 0.5 GTP, and 2 ATP. The extracellular solution contained (in mM) 140 NaCl, 5.4 KCl, 2.0 CaCl2, 1.0 MgCl2, 10 HEPES (pH 7.4), and 10 glucose. Whole-cell patch-clamp recordings were performed at −60 mV with an Axoclamp 200B (Molecular Devices, Sunnyvale, CA, USA) or with HEKA EPC-10 (HEKA Elektronik GmbH, Reutlingen, Germany) amplifiers. […] Brief (3–5 s) pulses of agonist together with alkaloids were applied to cells. Stock solutions of the alkaloids were prepared in high purity distilled water. Aliquots of these stock solutions were diluted in reservoirs containing extracellular solution. […] The concentration–response curve parameters for the alkaloid inhibition (IC50, nH, and the maximal current inhibition) were obtained from the fitted curve of normalized concentration–response data points to the equation Iagonist = Imax (agonist)nH/((agonist)nH + (EC50)nH). The IC50 curves are best-fit mean ± SE from pooled data. […] The concentration of agonist corresponds to the sub-saturating agonist concentration used to obtain the IC50 for each alkaloid on a given GlyR subtype.

The target in the next data set is T2, chimeric α1α2 GlyR (Rattus norvegicus, UniProt P07727+P22771, F345L/G282A/I268V/L342F/S324A).
T2 construct: Relevance of the ECD for the subunit-specific actions of gelsemine on α1GlyRs; expressed in transfected cells; host or cells: HEK293 (ATCC CRL-1573)
T2 sequence (P07727+P22771 with tags, fused parts or gaps P07727:I268V/P07727:G282A/P07727:S324A/P07727:L342F/P07727:F345L): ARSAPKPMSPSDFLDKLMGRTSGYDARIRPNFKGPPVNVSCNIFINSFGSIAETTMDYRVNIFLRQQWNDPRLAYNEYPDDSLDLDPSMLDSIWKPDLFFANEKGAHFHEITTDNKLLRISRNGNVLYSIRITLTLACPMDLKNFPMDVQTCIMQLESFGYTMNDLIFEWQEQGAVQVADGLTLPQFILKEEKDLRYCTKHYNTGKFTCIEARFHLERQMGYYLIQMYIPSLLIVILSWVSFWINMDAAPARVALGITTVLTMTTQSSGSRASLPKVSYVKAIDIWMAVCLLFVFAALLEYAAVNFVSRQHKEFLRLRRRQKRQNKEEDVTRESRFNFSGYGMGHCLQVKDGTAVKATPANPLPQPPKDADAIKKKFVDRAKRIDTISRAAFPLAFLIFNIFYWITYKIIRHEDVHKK
It is filed as cell-based. The protocol:
as §1, §2

The target of another data set is T3, α3β GlyR (Rattus norvegicus, UniProt P20781+P24524).
T3 construct: The cells were transfected with plasmids encoding the following proteins; expressed in transfected cells; host or cells: HEK293 (ATCC CRL-1573)
T3 sequence (P24524 34-464): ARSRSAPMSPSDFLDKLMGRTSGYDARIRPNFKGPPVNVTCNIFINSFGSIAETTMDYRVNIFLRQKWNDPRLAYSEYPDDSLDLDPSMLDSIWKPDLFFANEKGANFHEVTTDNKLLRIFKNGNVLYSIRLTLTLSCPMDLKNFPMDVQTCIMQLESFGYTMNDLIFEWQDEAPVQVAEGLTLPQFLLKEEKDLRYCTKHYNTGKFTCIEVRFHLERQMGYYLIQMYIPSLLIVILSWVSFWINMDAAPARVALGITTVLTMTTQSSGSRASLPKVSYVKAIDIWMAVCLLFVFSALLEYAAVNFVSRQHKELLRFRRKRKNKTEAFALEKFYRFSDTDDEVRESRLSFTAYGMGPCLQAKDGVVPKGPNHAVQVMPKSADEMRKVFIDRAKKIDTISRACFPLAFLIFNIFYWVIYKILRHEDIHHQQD
T3 sequence (P20781 23-496): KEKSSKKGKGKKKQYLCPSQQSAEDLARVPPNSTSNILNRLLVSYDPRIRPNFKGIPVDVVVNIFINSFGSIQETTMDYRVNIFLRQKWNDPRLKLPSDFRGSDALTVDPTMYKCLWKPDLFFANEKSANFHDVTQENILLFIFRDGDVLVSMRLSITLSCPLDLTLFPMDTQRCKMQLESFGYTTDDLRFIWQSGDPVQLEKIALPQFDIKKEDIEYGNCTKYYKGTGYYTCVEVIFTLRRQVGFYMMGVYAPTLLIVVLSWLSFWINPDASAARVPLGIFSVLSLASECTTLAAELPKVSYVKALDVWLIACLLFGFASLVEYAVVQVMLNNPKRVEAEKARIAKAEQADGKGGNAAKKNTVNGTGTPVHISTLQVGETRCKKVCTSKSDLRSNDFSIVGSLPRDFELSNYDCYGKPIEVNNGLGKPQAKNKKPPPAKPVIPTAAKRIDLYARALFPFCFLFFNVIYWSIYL
Nature of the data set: cell-based. It is filed as cell-based. On the procedure:
as §1, §2

For data set [1] the following is noted: in vivo studies; cited from earlier work.
For data set [2] the following is noted: cited from earlier work.

Turning to `NCC(=O)O` [glycine, reference compound], the EC50 on chimeric α2α1 GlyR (read-out: EC50 of agonist) was determined as 104 ± 9 µM; on chimeric α1α2 GlyR (read-out: EC50 of agonist) it was 55 ± 3 µM; on α3β GlyR (read-out: EC50 of agonist) it was 243 ± 13 µM.
With `C=C[C@@]12CN(C)[C@H]3C[C@]14C(=Nc1ccccc14)[C@H]1C[C@@H]2[C@@H]3CO1` [koumine], the LD50 entry in data set [1] is reported as “higher than 50 mg/kg”. In addition, in data set [2], the “residue in brain tissue after systemic application” value was “fully depleted after 1 day”. The compound further registered an IC50 against α3β GlyR of 20.2 ± 7.7 µM. The same compound had a nH on α3β GlyR (Hill coefficient of inhibition curve) of 0.9 ± 0.3. Besides, the Ki on α3β GlyR (calculated using the Cheng–Prussof equation) is 54.1 ± 20 µM.
Take `C=C[C@]12CN(C)[C@@H]3[C@H]4CO[C@H](C[C@H]41)[C@]1(C(=O)Nc4ccccc41)[C@@H]32` [gelsemine]: the “effect on glycine-evoked currents (in words)” value at chimeric α2α1 GlyR (50 μM gelsemine, 65 μM glycine) was “inhibitory effect”; at chimeric α1α2 GlyR (10 μM gelsemine, 35 μM glycine), “potentiated”. Also, the LD50 result in data set [1] is “higher than 50 mg/kg”. Moreover, in data set [2], the “residue in brain tissue after systemic application” value is “detectable in brain tissue after 3 days”.

These data come from paper PMC10970644, “Molecular Pharmacology of Gelsemium Alkaloids on Inhibitory Receptors” (International Journal of Molecular Sciences, 2024).
